Where two headings read alike, the source gives them in different places. Each block holds one compound with its values, some of them ahead of it.
Experiments:
A. fumigatus phytase = target: T1, A. fumigatus phytase (Aspergillus fumigatus, UniProt O00092); format: biochemical; details: for effect on the thermostabilization of A. fumigatus phytase: polyols with more than 6 or less than 5 carbon atoms, 65 °C; for temperature at which considerable activity still being detected: dicarboxylate at 25% (12.5% final concentration in the activity assay); for increase in phytase activity measured at 37 °C: dicarboxylates; for effects on the thermostability of the protein: sodium acetate 5, 10 and 25%
T1 construct: made in house; host or cells: Hansenula polymorpha
T1 sequence (O00092 27-465): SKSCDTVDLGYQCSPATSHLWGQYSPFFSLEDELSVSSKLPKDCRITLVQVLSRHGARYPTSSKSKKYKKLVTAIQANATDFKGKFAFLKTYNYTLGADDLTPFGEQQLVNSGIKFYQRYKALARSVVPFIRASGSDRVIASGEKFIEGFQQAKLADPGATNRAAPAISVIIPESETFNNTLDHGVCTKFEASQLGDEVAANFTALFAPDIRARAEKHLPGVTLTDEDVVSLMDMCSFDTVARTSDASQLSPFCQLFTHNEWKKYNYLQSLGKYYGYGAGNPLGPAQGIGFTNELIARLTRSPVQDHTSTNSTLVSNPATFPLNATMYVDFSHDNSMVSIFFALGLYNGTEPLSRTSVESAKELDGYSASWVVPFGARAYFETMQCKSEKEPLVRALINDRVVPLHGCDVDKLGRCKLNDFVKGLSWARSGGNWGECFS
Procedure: (§1) After incubation of the sample for 15 mm at the desired temperature (e.g. at 60 or 65 °C for the screening of additive effects), the reaction was stopped by addition of 0.5 ml 15% trichloroacetic acid. Determination of liberated inorganic phosphate was performed by standard methods.
(§2) Disodium malonate, succinate and glutarate were dissolved at concentrations of 5, 10 and 25% and phytase activity was measured after preincubation of enzyme plus additive and substrate (see above) at the following temperatures: 37, 45, 50, 55, 60, 65, 70, 75, 80, and 85 °C. In the same way, the temperature dependence of the activity of different phytases in the presence of 25% xylitol and ribitol was tested. It should be noted that the concentration of the additives was reduced by half after substrate addition.

[1] = Solubility of polyols in assay buffer; details: at a concentration of 50% (w/w)
Procedure: PEGs have been dissolved at a concentration of 50% with the exception of PEGs with a molecular weight of 4000, 8000 and 10000 which were used at a concentration of 25%. For the screening of PEGs and other polyols, the preincubation and reaction temperature was chosen as 60 °C for A. nidulans and A. terreus CBS phytase, 65 °C for A. fumigatus and A. niger phytase and 75 °C for consensus phytase.

A. nidulans phytase = target: T2, A. nidulans phytase (Emericella nidulans, UniProt O00093); assay: Effect of stabilizing additives on thermostability of A. nidulans phytase; format: biochemical, Aspergillus nidulans; details: 25% dicarboxylate
T2 construct: made in house; host or cells: Aspergillus niger
T2 sequence (O00093 20-463): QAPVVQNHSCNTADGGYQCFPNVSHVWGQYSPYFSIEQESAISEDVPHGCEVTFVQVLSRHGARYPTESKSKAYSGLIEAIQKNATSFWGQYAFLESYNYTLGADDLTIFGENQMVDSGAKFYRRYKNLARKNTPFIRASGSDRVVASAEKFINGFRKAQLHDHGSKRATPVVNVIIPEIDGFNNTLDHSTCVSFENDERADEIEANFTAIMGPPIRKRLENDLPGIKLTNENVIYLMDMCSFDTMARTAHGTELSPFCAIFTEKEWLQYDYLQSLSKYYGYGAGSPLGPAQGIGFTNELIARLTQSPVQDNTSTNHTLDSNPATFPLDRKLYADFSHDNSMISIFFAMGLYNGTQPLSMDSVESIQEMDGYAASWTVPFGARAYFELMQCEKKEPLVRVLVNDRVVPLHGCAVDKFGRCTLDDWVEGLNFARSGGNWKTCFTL
Procedure: as §1, §2

A. terreus CBS phytase = target: T3, A. terreus CBS phytase (Aspergillus terreus, UniProt O00100); assay: Effect of stabilizing additives on thermostability of A. terreus CBS phytase; format: biochemical; details: 25% dicarboxylate
T3 construct: made in house; host or cells: Hansenula polymorpha
T3 sequence (O00100 20-466): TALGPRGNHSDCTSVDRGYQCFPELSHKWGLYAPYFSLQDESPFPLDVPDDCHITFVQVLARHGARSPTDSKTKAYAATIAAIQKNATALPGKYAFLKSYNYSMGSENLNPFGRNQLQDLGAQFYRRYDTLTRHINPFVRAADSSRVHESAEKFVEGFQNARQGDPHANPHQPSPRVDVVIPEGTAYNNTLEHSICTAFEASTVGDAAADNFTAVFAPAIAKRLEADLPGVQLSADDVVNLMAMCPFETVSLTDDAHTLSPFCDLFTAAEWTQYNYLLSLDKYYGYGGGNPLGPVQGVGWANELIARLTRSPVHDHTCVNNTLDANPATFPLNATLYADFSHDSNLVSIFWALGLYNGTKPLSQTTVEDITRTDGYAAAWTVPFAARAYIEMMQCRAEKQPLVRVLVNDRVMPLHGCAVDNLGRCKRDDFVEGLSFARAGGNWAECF
Procedure: as §1, §2

A. niger phytase = target: T4, A. niger phytase (Aspergillus niger, UniProt P34752); assay: Effect of stabilizing additives on thermostability of A. niger phytase; format: biochemical; details: 25% dicarboxylate
T4 construct: made in house; host or cells: Aspergillus niger
T4 sequence (P34752 24-467): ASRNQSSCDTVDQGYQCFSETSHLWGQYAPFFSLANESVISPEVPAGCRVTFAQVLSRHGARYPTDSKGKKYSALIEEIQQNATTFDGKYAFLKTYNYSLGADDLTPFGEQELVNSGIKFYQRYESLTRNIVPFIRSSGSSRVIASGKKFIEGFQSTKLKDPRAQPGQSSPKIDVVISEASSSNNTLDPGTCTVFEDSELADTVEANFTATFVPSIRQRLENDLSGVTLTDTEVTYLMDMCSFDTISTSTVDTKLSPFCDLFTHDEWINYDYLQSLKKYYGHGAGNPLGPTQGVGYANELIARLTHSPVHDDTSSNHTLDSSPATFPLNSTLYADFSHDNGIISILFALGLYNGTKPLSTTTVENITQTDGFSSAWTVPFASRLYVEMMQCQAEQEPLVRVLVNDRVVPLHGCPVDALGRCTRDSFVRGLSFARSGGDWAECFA
Procedure: as §1, §2

consensus phytase = assay: Effect of stabilizing additives on thermostability of consensus phytase; format: biochemical; details: for increase of thermostability: 25% dicarboxylate
Procedure: as §1
as §2, with “In the same way, the temperature dependence of the activity of different phytases in the presence of 25% xylitol and ribitol was tested.” left out

[2] = in the presence of 50% solutions of polyol
[3] = polyol at a concentration of 12.5%
[4] = polyol at a concentration of 25%

SMILES: OC[C@@H](O)[C@@H](O)CO [erythritol]
effect on the thermostabilization of A. fumigatus phytase (A. fumigatus phytase): inferior effect
solubility in 0.2 M sodium acetate, pH 5.0 [1]: not soluble

SMILES: OCC(O)CO [glycerol]
effect on the thermostabilization of A. fumigatus phytase (A. fumigatus phytase): inferior effect

SMILES: O=C(O)CC(=O)O [malonate, disodium malonate]
temperature at which considerable activity still being detected (A. fumigatus phytase): 70 °C
increase in phytase activity measured at 37 °C (A. fumigatus phytase): approximately 4 fold
increase of thermostability (A. nidulans phytase): 5-15 °C
increase of thermostability (A. terreus CBS phytase): 5-15 °C
increase of thermostability (A. niger phytase): 5-15 °C
increase of thermostability (consensus phytase): 5-15 °C

effect on the thermostabilization of A. fumigatus phytase (A. fumigatus phytase): inferior effect
solubility in 0.2 M sodium acetate, pH 5.0 [1]: not soluble
SMILES: O=C[C@@H](O)[C@@H](O)[C@H](O)[C@H](O)[C@H](O)CO [mannoheptose]

SMILES: O=C(CO)[C@@H](O)[C@@H](O)[C@H](O)[C@H](O)CO [mannoheptulose]
effect on the thermostabilization of A. fumigatus phytase (A. fumigatus phytase): inferior effect
solubility in 0.2 M sodium acetate, pH 5.0 [1]: not soluble

SMILES: OC[C@@H](O)[C@@H](O)[C@@H](O)CO [ribitol]
specific activities measured at 65 °C (A. fumigatus phytase; in the presence of 25% polyol): 11 U*(mg protein)^-1
specific activities measured at 65 °C (A. fumigatus phytase; [2]): 51 U*(mg protein)^-1
specific activity measured at 65 °C (A. fumigatus phytase; [3]): 11-12 U/mg
specific activity measured at 65 °C (A. fumigatus phytase; [4]): 51-90 U/mg

effects on the thermostability of the protein (A. fumigatus phytase): only minor effects
effects on the thermostability of the protein (A. fumigatus phytase; listed as Sodium acetate): no effect
SMILES: CC(=O)O [sodium acetate]

specific activities measured at 65 °C (A. fumigatus phytase; in the presence of 25% polyol): 11 U*(mg protein)^-1
specific activities measured at 65 °C (A. fumigatus phytase; [2]): 74 U*(mg protein)^-1
SMILES: OC[C@@H](O)[C@@H](O)[C@H](O)[C@@H](O)CO [sorbitol]

SMILES: O=C(O)CCC(=O)O [succinate, disodium succinate]
temperature at which considerable activity still being detected (A. fumigatus phytase): 65 °C
increase in phytase activity measured at 37 °C (A. fumigatus phytase): 2 fold
increase of thermostability (A. nidulans phytase): 5-15 °C
increase of thermostability (A. terreus CBS phytase): 5-15 °C
increase of thermostability (A. niger phytase): 5-15 °C
increase of thermostability (consensus phytase): 5-15 °C

SMILES: OC[C@@H](O)[C@H](O)[C@@H](O)CO [xylitol]
specific activities measured at 65 °C (A. fumigatus phytase; in the presence of 25% polyol): 21 U*(mg protein)^-1
specific activities measured at 65 °C (A. fumigatus phytase; [2]): 90 U*(mg protein)^-1
specific activity measured at 65 °C (A. fumigatus phytase; [3]): 11-12 U/mg
specific activity measured at 65 °C (A. fumigatus phytase; [4]): 51-90 U/mg
increase of temperature optimum (consensus phytase; xylitol 50%): 10-15 °C
